This passage reports IC50 results from US9273058B2 (BRISTOL-MYERS SQUIBB COMPANY, priority 2013, dated 2016).

One test has as its target CK1ε (Homo sapiens, UniProt P49674). Put plainly: CK1ε kinase assay (Caliper LabChip electrophoretic separation of fluoresceinated peptide substrate and product). Type of test: biochemical. The following applies: 200 pM CK1ε, 50 μM ATP, 1.5 μM peptide, 22 hours at room temperature. Put shortly:
(§1)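 IC50 values were obtained by non-linear regression from eleven-concentration titrations. The kinase reactions were incubated for 22 hours at room temperature before termination with 35 mM EDTA.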

For another test, the target named is CK1δ (Homo sapiens, UniProt P48730). Put plainly: CK1δ kinase assay (Caliper LabChip electrophoretic separation of fluoresceinated peptide substrate and product). Type of test: biochemical. The following applies: 200 pM CK1δ, 50 μM ATP, 1.5 μM peptide, 22 hours at room temperature. Put shortly:
as §1

Like-named read-outs stand apart in the source and are kept apart here.

Chain of CK1δ (P48730 whole entry): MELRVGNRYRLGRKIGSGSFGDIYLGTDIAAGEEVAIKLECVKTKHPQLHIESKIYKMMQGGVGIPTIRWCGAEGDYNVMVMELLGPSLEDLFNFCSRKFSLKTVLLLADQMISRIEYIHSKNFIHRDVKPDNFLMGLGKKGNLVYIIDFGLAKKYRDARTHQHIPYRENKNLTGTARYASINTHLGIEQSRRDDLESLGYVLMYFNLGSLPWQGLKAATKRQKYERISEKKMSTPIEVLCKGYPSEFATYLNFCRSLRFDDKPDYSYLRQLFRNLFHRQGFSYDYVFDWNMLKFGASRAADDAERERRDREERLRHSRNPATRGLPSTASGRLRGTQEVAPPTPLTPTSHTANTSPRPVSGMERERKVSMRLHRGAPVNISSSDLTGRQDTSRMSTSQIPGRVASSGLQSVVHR
Chain of CK1ε (P49674 whole entry): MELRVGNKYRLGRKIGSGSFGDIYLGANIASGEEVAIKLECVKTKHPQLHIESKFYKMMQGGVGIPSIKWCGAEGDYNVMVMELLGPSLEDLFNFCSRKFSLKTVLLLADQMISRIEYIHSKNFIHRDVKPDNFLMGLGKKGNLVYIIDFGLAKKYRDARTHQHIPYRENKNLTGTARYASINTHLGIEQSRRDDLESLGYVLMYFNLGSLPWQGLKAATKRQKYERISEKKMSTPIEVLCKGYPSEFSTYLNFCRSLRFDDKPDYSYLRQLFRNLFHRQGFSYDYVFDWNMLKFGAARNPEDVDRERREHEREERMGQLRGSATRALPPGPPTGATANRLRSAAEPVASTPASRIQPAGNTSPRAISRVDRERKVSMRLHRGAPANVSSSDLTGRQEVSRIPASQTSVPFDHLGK

Turning to `CS[C@H]1C[C@@H](NC(=O)N2CCn3nc(-c4ccc(F)c(Cl)c4)c(C(N)=O)c3C2)C1` [Compound 269, 2-(3-Chloro-4-fluorophenyl)-N^5-((1s,3s)-3-(methylthio)cyclobutyl)-6,7-dihydropyrazolo[1,5-a]pyrazine-3,5(4H)-dicarboxamide], the IC50 on CK1ε (read-out: CK1ε IC50 range) and on CK1δ (read-out: CK1δ IC50 range) was 0.01 to 10 nM in each case.
Consider `CS[C@H]1C[C@@H](NC(=O)N2CCn3nc(-c4cccc(Cl)c4)c(C(N)=O)c3C2)C1` [Compound 270, 2-(3-Chlorophenyl)-N^5-((1s,3s)-3-(methylthio)cyclobutyl)-6,7-dihydropyrazolo[1,5-a] pyrazine-3,5(4H)-dicarboxamide], for which the IC50 at CK1ε (read-out: CK1ε IC50 range) and on CK1δ (read-out: CK1δ IC50 range) was 0.01 to 10 nM each time.
For `CS[C@H]1C[C@@H](NC(=O)N2CCn3nc(-c4ccc(Cl)c(Cl)c4)c(C(N)=O)c3C2)C1` [Compound 271, 2-(3,4-Dichlorophenyl)-N^5-((1s,3s)-3-(methylthio)cyclobutyl)-6,7-dihydropyrazolo[1,5-a] pyrazine-3,5(4H)-dicarboxamide], the IC50 at CK1ε (read-out: CK1ε IC50 range) and at CK1δ (read-out: CK1δ IC50 range) was 0.01 to 10 nM throughout.
On to `CS(=O)(=O)[C@H]1C[C@@H](NC(=O)N2CCn3nc(-c4ccc(F)c(Cl)c4)c(C(N)=O)c3C2)C1` [Compound 272, 2-(3-Chloro-4-fluorophenyl)-N^5-((1s,3s)-3-(methylsulfonyl)cyclobutyl)-6,7-dihydropyrazolo[1,5-a]pyrazine-3,5(4H)-dicarboxamide], for which the IC50 on CK1ε (read-out: CK1ε IC50 range) and at CK1δ (read-out: CK1δ IC50 range) was 0.01 to 10 nM each time.
Consider `CS(=O)(=O)[C@H]1C[C@@H](NC(=O)N2CCn3nc(-c4cccc(Cl)c4)c(C(N)=O)c3C2)C1` [Compound 273, 2-(3-Chlorophenyl)-N^5-((1s,3s)-3-(methylsulfonyl)cyclobutyl)-6,7-dihydropyrazolo[1,5-a] pyrazine-3,5(4H)-dicarboxamide], for which the IC50 at CK1ε (read-out: CK1ε IC50 range) and on CK1δ (read-out: CK1δ IC50 range) was 0.01 to 10 nM each time.
Take `CS(=O)(=O)[C@H]1C[C@@H](NC(=O)N2CCn3nc(-c4ccc(Cl)c(Cl)c4)c(C(N)=O)c3C2)C1` [Compound 274, 2-(3,4-Dichlorophenyl)-N^5-((1s,3s)-3-(methylsulfonyl)cyclobutyl)-6,7-dihydropyrazolo[1,5-a] pyrazine-3,5(4H)-dicarboxamide]: the IC50 at CK1ε (read-out: CK1ε IC50 range) and at CK1δ (read-out: CK1δ IC50 range) was 0.01 to 10 nM in each case.
Consider `C[C@]1(NC(=O)N2CCn3nc(-c4ccc(F)c(Cl)c4)c(C(N)=O)c3C2)C[C@H](F)C1` [Compound 275, 2-(3-Chloro-4-fluorophenyl)-N^5-((1r,3r)-3-fluoro-1-methylcyclobutyl)-6,7-dihydropyrazolo[1,5-a]pyrazine-3,5(4H)-dicarboxamide], for which the IC50 at CK1ε (read-out: CK1ε IC50 range) and on CK1δ (read-out: CK1δ IC50 range) was 0.01 to 10 nM each time.
Turning to `NC(=O)c1c(-c2ccc(F)c(Cl)c2)nn2c1CN(C(=O)N[C@H]1C[C@@H](c3ccc(F)cc3)C1)CC2` [Compound 276, 2-(3-Chloro-4-fluorophenyl)-N^5-((1s,3s)-3-(4-fluorophenyl)cyclobutyl)-6,7-dihydropyrazolo[1,5-a]pyrazine-3,5(4H)-dicarboxamide], the IC50 at CK1ε (read-out: CK1ε IC50 range) and at CK1δ (read-out: CK1δ IC50 range) was 0.01 to 10 nM throughout.
As to `NC(=O)c1c(-c2cccc(Cl)c2)nn2c1CN(C(=O)N[C@H]1C[C@@H](c3ccc(F)cc3)C1)CC2` [Compound 277, 2-(3-Chlorophenyl)-N^5-((1s,3s)-3-(4-fluorophenyl)cyclobutyl)-6,7-dihydropyrazolo[1,5-a] pyrazine-3,5(4H)-dicarboxamide], the IC50 on CK1ε (read-out: CK1ε IC50 range) and at CK1δ (read-out: CK1δ IC50 range) was 0.01 to 10 nM throughout.
As for `NC(=O)c1c(-c2ccc(Cl)c(Cl)c2)nn2c1CN(C(=O)N[C@H]1C[C@@H](c3ccc(F)cc3)C1)CC2` [Compound 278, 2-(3,4-Dichlorophenyl)-N^5-((1s,3s)-3-(4-fluorophenyl)cyclobutyl)-6,7-dihydropyrazolo[1,5-a] pyrazine-3,5(4H)-dicarboxamide], the IC50 on CK1ε (read-out: CK1ε IC50 range) and at CK1δ (read-out: CK1δ IC50 range) was 0.01 to 10 nM throughout.
In the case of `COc1ccc([C@H]2C[C@@H](NC(=O)N3CCn4nc(-c5ccc(F)c(Cl)c5)c(C(N)=O)c4C3)C2)cc1` [Compound 279, 2-(3-Chloro-4-fluorophenyl)-N^5-((1s,3s)-3-(4-methoxyphenyl)cyclobutyl)-6,7-dihydropyrazolo[1,5-a]pyrazine-3,5(4H)-dicarboxamide], the IC50 at CK1ε (read-out: CK1ε IC50 range) and on CK1δ (read-out: CK1δ IC50 range) was 0.01 to 10 nM in each case.
In the case of `COc1ccc([C@H]2C[C@@H](NC(=O)N3CCn4nc(-c5ccc(Cl)c(Cl)c5)c(C(N)=O)c4C3)C2)cc1` [Compound 280, 2-(3,4-dichlorophenyl)-N^5-((1s,3s)-3-(4-methoxyphenyl)cyclobutyl)-6,7-dihydropyrazolo[1,5-a] pyrazine-3,5(4H)-dicarboxamide], the IC50 on CK1ε (read-out: CK1ε IC50 range) and on CK1δ (read-out: CK1δ IC50 range) was 0.01 to 10 nM throughout.
Take `COc1ccc([C@H]2C[C@@H](NC(=O)N3CCn4nc(-c5cccc(Cl)c5)c(C(N)=O)c4C3)C2)cc1` [Compound 281, 2-(3-Chlorophenyl)-N^5-((1s,3s)-3-(4-methoxyphenyl)cyclobutyl)-6,7-dihydropyrazolo[1,5-a] pyrazine-3,5(4H)-dicarboxamide]: the IC50 on CK1ε (read-out: CK1ε IC50 range) and on CK1δ (read-out: CK1δ IC50 range) was 0.01 to 10 nM in each case.
On to `N#Cc1ccc([C@H]2C[C@@H](NC(=O)N3CCn4nc(-c5ccc(Cl)c(Cl)c5)c(C(N)=O)c4C3)C2)cc1` [Compound 283, N^5-((1s,3s)-3-(4-Cyanophenyl)cyclobutyl)-2-(3,4-dichlorophenyl)-6,7-dihydropyrazolo[1,5-a]pyrazine-3,5(4H)-dicarboxamide], for which the IC50 at CK1ε (read-out: CK1ε IC50 range) and at CK1δ (read-out: CK1δ IC50 range) was 0.01 to 10 nM each time.
Consider `N#Cc1ccc([C@H]2C[C@@H](NC(=O)N3CCn4nc(-c5cccc(Cl)c5)c(C(N)=O)c4C3)C2)cc1` [Compound 284, 2-(3-Chlorophenyl)-N^5-((1s,3s)-3-(4-cyanophenyl)cyclobutyl)-6,7-dihydropyrazolo[1,5-a] pyrazine-3,5(4H)-dicarboxamide], for which the IC50 at CK1ε (read-out: CK1ε IC50 range) and on CK1δ (read-out: CK1δ IC50 range) was 0.01 to 10 nM throughout.
On to `CC1(C)CC(NC(=O)N2CCn3nc(-c4ccc(F)c(Cl)c4)c(C(N)=O)c3C2)C1` [Compound 285, 2-(3-Chloro-4-fluorophenyl)-N^5-(3,3-dimethylcyclobutyl)-6,7-dihydropyrazolo[1,5-a]pyrazine-3,5(4H)-dicarboxamide], for which the IC50 on CK1ε (read-out: CK1ε IC50 range) and on CK1δ (read-out: CK1δ IC50 range) was 0.01 to 10 nM throughout.
Regarding `CC1(C)CC(NC(=O)N2CCn3nc(-c4cccc(Cl)c4)c(C(N)=O)c3C2)C1` [Compound 286], the IC50 on CK1ε (read-out: CK1ε IC50 range) and on CK1δ (read-out: CK1δ IC50 range) was 0.01 to 10 nM each time.
As for `CC1(C)CC(NC(=O)N2CCn3nc(-c4ccc(Cl)c(Cl)c4)c(C(N)=O)c3C2)C1` [Compound 287, 2-(3,4-Dichlorophenyl)-N^5-(3,3-dimethylcyclobutyl)-6,7-dihydropyrazolo[1,5-a] pyrazine-3,5(4H)-dicarboxamide], the IC50 at CK1ε (read-out: CK1ε IC50 range) and at CK1δ (read-out: CK1δ IC50 range) was 0.01 to 10 nM each time.
In the case of `NC(=O)c1c(-c2ccc(F)c(Cl)c2)nn2c1CN(C(=O)NC1CC(F)(F)C1)CC2` [Compound 291, 2-(3-Chloro-4-fluorophenyl)-N^5-(3,3-difluorocyclobutyl)-6,7-dihydropyrazolo[1,5-a]pyrazine-3,5(4H)-dicarboxamide], the IC50 at CK1ε (read-out: CK1ε) is 1.4 nM; at CK1ε (read-out: CK1ε IC50 range) it was 0.01 to 10 nM; at CK1δ (read-out: CK1δ), 0.9 nM; on CK1δ (read-out: CK1δ IC50 range) it was 0.01 to 10 nM.
With `NC(=O)c1c(-c2cccc(Cl)c2)nn2c1CN(C(=O)NC1CC(F)(F)C1)CC2` [Compound 292, 2-(3-Chlorophenyl)-N^5-(3,3-difluorocyclobutyl)-6,7-dihydropyrazolo[1,5-a]pyrazine-3,5(4H)-dicarboxamide], the IC50 on CK1ε (read-out: CK1ε IC50 range) and at CK1δ (read-out: CK1δ IC50 range) was 10 to 100 nM in each case.
For the molecule `NC(=O)c1c(-c2cc(Cl)cc(Cl)c2)nn2c1CN(C(=O)NC1CC(F)(F)C1)CC2` [Compound 293, 2-(3,5-Dichlorophenyl)-N^5-(3,3-difluorocyclobutyl)-6,7-dihydropyrazolo[1,5-a] pyrazine-3,5(4H)-dicarboxamide], the IC50 on CK1ε (read-out: CK1ε IC50 range) and on CK1δ (read-out: CK1δ IC50 range) was 0.01 to 10 nM in each case.
Take `NC(=O)c1c(-c2ccc(Cl)c(Cl)c2)nn2c1CN(C(=O)NC1CC(F)(F)C1)CC2` [Compound 294, 2-(3,4-Dichlorophenyl)-N^5-(3,3-difluorocyclobutyl)-6,7-dihydropyrazolo[1,5-a] pyrazine-3,5(4H)-dicarboxamide]: the IC50 on CK1ε (read-out: CK1ε IC50 range) and at CK1δ (read-out: CK1δ IC50 range) was 0.01 to 10 nM throughout.
Regarding `NC(=O)c1c(-c2cc(F)cc(Cl)c2)nn2c1CN(C(=O)NC1CC(F)(F)C1)CC2` [Compound 295, 2-(3-Chloro-5-fluorophenyl)-N^5-(3,3-difluorocyclobutyl)-6,7-dihydropyrazolo[1,5-a] pyrazine-3,5(4H)-dicarboxamide], the IC50 on CK1ε (read-out: CK1ε IC50 range) and at CK1δ (read-out: CK1δ IC50 range) was 0.01 to 10 nM throughout.
Turning to `CC1(NC(=O)N2CCn3nc(-c4ccc(F)c(Cl)c4)c(C(N)=O)c3C2)CC(F)(F)C1` [Compound 296, 2-(3-Chloro-4-fluorophenyl)-N^5-(3,3-difluoro-1-methylcyclobutyl)-6,7-dihydropyrazolo[1,5-a]pyrazine-3,5(4H)-dicarboxamide], the IC50 on CK1ε (read-out: CK1ε IC50 range) and at CK1δ (read-out: CK1δ IC50 range) was 0.01 to 10 nM throughout.
For the molecule `CC1(NC(=O)N2CCn3nc(-c4ccc(Cl)c(Cl)c4)c(C(N)=O)c3C2)CC(F)(F)C1` [Compound 297, 2-(3,4-Dichlorophenyl)-N^5-(3,3-difluoro-1-methylcyclobutyl)-6,7-dihydropyrazolo[1,5-a] pyrazine-3,5(4H)-dicarboxamide], the IC50 on CK1ε (read-out: CK1ε) is 0.3 nM; on CK1ε (read-out: CK1ε IC50 range) it was 0.01 to 10 nM; on CK1δ (read-out: CK1δ), 0.5 nM; on CK1δ (read-out: CK1δ IC50 range), 0.01 to 10 nM.
